Assay results published in patent US20110027296A1, “ANTIBODIES FOR TREATING CANCER” (UNIVERSIDAD DE BARCELONA, priority 2008, published 2011).
Bridge positions count the residues as written; N and C are the ends. Square brackets hold non-standard residues; d marks the D form. Peptide text beside a SMILES is read from it. * marks the point of attachment. NH(β-GlcNAc) = CC(=O)N[C@@H]1[C@@H](O)[C@H](O)[C@@H](CO)O[C@H]1N*; Dap = NC[C@H](N)C(=O)O

Key:
MDA-MB-231 = settings: cytostatic and not cytotoxic effect; cited from earlier work
BCC = settings: 1 nM antagonist; cited from earlier work
EGFR = EGFR phosphorylation by Western blot in MDA-MB-468 cells; assay type: cell-based; settings: MDA-MB-468, 100 nM SP, time course
Experimental: FIG. 8A: to analyze the effects of SP on EGFR activation MDA-MB-468 cell line was treated with SP at 100 nM for the indicated times (in min). The levels of phospho-EGFR and phospho-Erk were determined by Western blot analysis. FIG. 8B: The effects of the inhibition of SP in the activation of EGFR were determined as for HER2. C means control.
For the analysis of substance P treatment on HER2 and EGFR activation, cells were seeded on dishes and growth until 80% confluence. After 24 hours of fetal deprivation, cells were treated at the indicated times with 100 nM SP. Cells were wash two times with cold PBS and rapidly frozen in a −80° C. freezer until protein extraction. […]
(§1) For protein extraction cells were lysated in ice-cold radioimmunoprecipitation assay buffer (Tris-HCl 50 mM, pH 7.4; NP-40 1%; Na-deoxycholate, 0.25%, NaCl 150 mM; EDTA 1 mM; PMSF 1 mM; proteinase inhibitors; Na3VO4 1 mM and NaF 1 mM) and sonicated for 10 seconds. After centrifugation (13000 g 5 min) supernatants were quantified for protein content. […] Chemiluminiscence of the bands was detected after ECL treatment (Amersham, Piscataway, N.J.) of membranes and subsequent analysis using a Fujifilm LAS3000 imaging system. Different intensities of bands were quantified using Image Gauge software, and correct Mr was compared with pre-stained protein standards (BioRad).

[1] = system: cyclin D1, cdk4, cdk2, p21 and p27; experiment: Cell cycle protein expression by Western blot; assay type: cell-based; settings: 100 nM SP or antibody 1/100 dilution; indicator of proliferative rate
Experimental: FIG. 1A: For the study of the effect of SP and its inhibition on cell cycle protein expression, cells were treated with 100 nM of SP or antibody anti-SP at 1/100 dilution for 48 hours. The different pattern of protein expression was determined by Western blot. C (control), SP, αSP (anti-SP antibody). FIG. 1B: For the time-course studies cells were treated at the same concentration of antibody for the times indicated. FIG. 1C: The ratio between p27/cyclin D1 (y-axis) was determined as an indicator of the proliferative rate of the cells.
For the analysis of substance P treatment on HER2 and EGFR activation, cells were seeded on dishes and growth until 80% confluence. […]
as §1

HER2 = HER2 phosphorylation and expression by Western blot in breast cancer cell lines; assay type: cell-based; settings: SP 100 nM, FIG. 5
Experimental: In FIG. 5A, to analyze the effects of SP on HER2 activation different BC cell lines were treated with SP at 100 nM for the indicated times (in min). […] In FIG. 5B, for the dose-response study MDA-MB-453 cell line was treated at different times (minutes, x-axis) with 100, 200 or 500 nM of SP, and then activation of HER2 was determined. The results are expressed as a percentage of control (y-axis), and every experiment was done in duplicate.
In FIG. 6A cells were treated with 500 nM of SP or anti-SP antibody at 1/100 dilution for 48 hours, and the levels of the different proteins determined by Western blot. C means control. […] In FIG. 6B for the time-course studies, SKBR3 and BT474 cell lines were treated with anti-SP antibody for 24, 48 and 72 hours and protein analyzed by Western blot. […]
as §1, with “Different intensities of bands were quantified using Image Gauge software, and correct Mr was compared with pre-stained protein standards (BioRad).” left out

CC(=O)N[C@@H]1[C@@H](O)[C@H](O)[C@@H](CO)O[C@H]1NC(=O)C[C@@H]1NC(=O)[C@H](CC(C)C)NC(=O)[C@@H]2CNC(=O)C[C@H](NC1=O)C(=O)N[C@@H](Cc1c[nH]c3ccccc13)C(=O)N[C@@H](Cc1ccccc1)C(=O)N2 [MEN 11420] (cyclo(D(NH(β-GlcNAc))DWF[Dap]L); lactam 2-5)
proliferation of tumor cell line MDA-MB-231 (MDA-MB-231): induced an inhibition of proliferation

Cc1ccc(CC(=O)N(C)[C@H](Cc2ccc3ccccc3c2)C(=O)N[C@@H]2CCCC[C@@H]2NC(=O)c2c[nH]c3ccccc23)cc1 [MEN 11467]
proliferation of tumor cell line MDA-MB-231 (MDA-MB-231): induced an inhibition of proliferation

CC(=O)NC1(c2ccccc2)CCN(CC[C@H](CN(C)C(=O)c2ccccc2)c2ccc(Cl)c(Cl)c2)CC1 [SR 48968]
reduction of BCC colony formation (BCC): 60%

Arg-Pro-Lys-Pro-Gln-Gln-Phe-Phe-Gly-Leu-Met [substance P]
activation of EGFR (phospho-EGFR) (EGFR): Activation of EGFR was observed at 2 min, with a second activation point at minute 6 | p27/cyclin D1 ratio [1]: caused a decrease in p27/cyclin D1 ratio | transactivation of HER2 (HER2): induces transactivation of HER2
